In PubChem BioAssay (NCI) one finds TGI and GI50 data, which are given here for 27 molecules.

Among the test systems are BT-549 breast; MCF7 breast; NCI-H522 lung; DLD-1 colon; DMS 114 small cell lung; KM20L2 colon; LXFL 529 NSCLC; M19-MEL melanoma; RXF-631 renal; SNB-78 CNS; XF 498 CNS; DMS 273 small cell lung; HOP-18 NSCLC; P388 leukemia; P388/ADR leukemia; SN12K1 renal.
Test in all cases: NCI tumour cell line growth inhibition, 48 h

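Interpolation was linear, between the two tested concentrations surrounding the appropriate level; five concentrations were tested over 48 hours in 96-well plates. Here, GI50 denotes the concentration required for 50% inhibition of growth. At the TGI there is no net growth.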

Turning to `CC(=O)N1C(CCc2ccccc2)CC(C)(C=O)C1Cc1ccc(O[Si](C(C)C)(C(C)C)C(C)C)cc1` (stereo unspecified), the results for the TGI in the experiment on BT-549 breast, with MCF7 breast and in the experiment with NCI-H522 lung were 29.7 µM, 5.26 µM and 5.95 µM, respectively.
With `COCCNCc1ccc(-c2cc3nccc(Oc4ccc(NC(=O)C5(C(=O)Nc6ccc(F)cc6)CC5)cc4F)c3s2)nc1`, in the experiment on MCF7 breast, the GI50 is 1.22 µM and the TGI is 3.58 µM.
As for `Cc1ccc(C(C)C)c(OCC(=O)N/N=C/c2c[nH]c3ccc(Br)cc23)c1`, the TGI was determined as 18.7 µM with BT-549 breast, 11.2 µM with MCF7 breast and 8.17 µM in the experiment on NCI-H522 lung.
In the same order, the values of `Nc1nc(Cl)c(N)c(NCC2(CO)CCC(CCc3ccccc3)C2)n1` (stereo unspecified) are 32.6 µM, 34.9 µM and 26.3 µM.
On to `O=S(O)CCCSSSCCCS(=O)O`, for which the TGI in the experiment on DLD-1 colon, in the experiment with DMS 114 small cell lung, in the experiment on KM20L2 colon, in the experiment with LXFL 529 NSCLC, with M19-MEL melanoma and in the experiment on NCI-H522 lung was > 100 µM throughout. The TGI with RXF-631 renal, in the experiment with SNB-78 CNS and in the experiment with XF 498 CNS was > 100 µM each time.
Turning to `COc1cc(NCCC(=O)O)c2ncccc2c1`, the TGI with BT-549 breast and in the experiment on NCI-H522 lung was > 100 µM throughout.
`CSCC(CO)NC(=O)/C=C/c1c(C)[nH]c(=O)[nH]c1=O` (stereo unspecified): the TGI is > 875 µM in the experiment with DLD-1 colon; > 801 µM with DMS 114 small cell lung; > 875 µM in the experiment on DMS 273 small cell lung; > 875 µM in the experiment on HOP-18 NSCLC; > 875 µM in the experiment with KM20L2 colon; > 875 µM in the experiment with M19-MEL melanoma. Besides, the TGI in the experiment with MCF7 breast is > 609 µM; with NCI-H522 lung, 499 µM; with P388 leukemia, > 875 µM; in the experiment on P388/ADR leukemia it was > 875 µM; in the experiment with SN12K1 renal, > 875 µM; with SNB-78 CNS, > 875 µM. The TGI in the experiment on XF 498 CNS was 815 µM.
As for `Clc1cc(OCc2nn3c(Cc4ccccc4)nnc3s2)c(Cl)cc1OCc1nn2c(Cc3ccccc3)nnc2s1`, the results for the TGI in the experiment on BT-549 breast, in the experiment on MCF7 breast and in the experiment with NCI-H522 lung were 95.9 µM, > 100 µM and > 100 µM, respectively.
Regarding `Cc1ccc(Nc2nc(=O)c3c([nH]c4ccccc43)s2)cc1`, the results for the TGI with BT-549 breast and with NCI-H522 lung were 33.5 µM and 32.4 µM, respectively.
With `S=c1[nH]n2c(COc3ccc(Cl)cc3)nnc2s1`, the TGI with MCF7 breast and in the experiment with NCI-H522 lung was > 100 µM throughout.
Take `COc1ccc(CCc2ccc3c(c2)OCO3)cc1`: the TGI in the experiment on BT-549 breast, in the experiment on MCF7 breast and in the experiment on NCI-H522 lung was > 100 µM each time.
Turning to `NNC(=O)c1cc([N+](=O)[O-])ccc1NC(=O)C12CC3CC(CC(C3)C1)C2`, the TGI with BT-549 breast is > 100 µM; in the experiment with MCF7 breast, > 100 µM; with NCI-H522 lung it was 15.1 µM.
Turning to `c1ccc2c(c1)SCCc1cn[nH]c1-2`, the TGI with DLD-1 colon, in the experiment with DMS 114 small cell lung, with DMS 273 small cell lung, in the experiment with HOP-18 NSCLC, in the experiment on KM20L2 colon and in the experiment with M19-MEL melanoma was > 100 µM each time. Moreover, the TGI in the experiment with MCF7 breast, in the experiment with NCI-H522 lung, with P388 leukemia, in the experiment on P388/ADR leukemia, with SN12K1 renal and with SNB-78 CNS was > 100 µM throughout. For the same molecule, in the experiment on XF 498 CNS, the TGI was > 100 µM.
Regarding `c1csc(-c2ccc(CNc3c4ccccc4nc4ccccc34)cc2)c1`, in the experiment with BT-549 breast, the GI50 is 3.87 µM and the TGI was 14.1 µM.
For the molecule `O=C1C(c2c(O)[nH]c3ccc(Cl)cc23)=Nc2ccccc21`, the TGI with BT-549 breast was > 100 µM; in the experiment on MCF7 breast it was > 22 µM; in the experiment on NCI-H522 lung, > 100 µM.
`NNC(=O)CCc1ccc2ccc3ccccc3c2c1`: the TGI in the experiment on BT-549 breast, with MCF7 breast and in the experiment on NCI-H522 lung was > 100 µM in each case.
As for `CC[C@@H]([C@H](O)c1ccccc1Cl)[N+](=O)[O-]`, the TGI in the experiment with BT-549 breast, in the experiment with MCF7 breast and in the experiment with NCI-H522 lung was > 100 µM each time.
On to `CN(c1ccccc1)c1nc(=[N+]2CCCC2)ss1`, for which the TGI in the experiment with DMS 114 small cell lung, with DMS 273 small cell lung, in the experiment with HOP-18 NSCLC, in the experiment with KM20L2 colon, with LXFL 529 NSCLC and in the experiment on RXF-631 renal was > 100 µM each time. Moreover, the TGI in the experiment with SNB-78 CNS was > 100 µM.
Take `Cc1cccc2c1Sc1ccccc1C2NC(=O)CN(C)C` (stereo unspecified): the TGI in the experiment on DMS 114 small cell lung is > 100 µM; with DMS 273 small cell lung, > 100 µM; with KM20L2 colon, 37.4 µM; with LXFL 529 NSCLC, > 100 µM; in the experiment with M19-MEL melanoma, > 100 µM; in the experiment on SNB-78 CNS, > 100 µM. Besides, the TGI in the experiment on XF 498 CNS was > 100 µM.
For `O=C(Sc1n[nH]c(=O)[nH]c1=O)c1cccc2nc3ccccc3nc12`, the TGI in the experiment on BT-549 breast and in the experiment with MCF7 breast was > 100 µM throughout.
On to `c1ccc(C2=NN=C3C(c4ccccc4)=Nc4ccccc4N3C2)cc1`, for which the TGI was > 100 µM in the experiment with BT-549 breast, > 77.4 µM in the experiment on MCF7 breast and 22.8 µM with NCI-H522 lung.
In the case of `CO/C=C1\OC(=O)C=C1OC`, the TGI in the experiment with DLD-1 colon, in the experiment with DMS 114 small cell lung, in the experiment with DMS 273 small cell lung, in the experiment on HOP-18 NSCLC, in the experiment with M19-MEL melanoma and in the experiment with MCF7 breast was > 100 µM each time. For the same molecule, the TGI in the experiment with NCI-H522 lung, in the experiment on P388 leukemia, in the experiment on P388/ADR leukemia, with SN12K1 renal, in the experiment on SNB-78 CNS and in the experiment with XF 498 CNS was > 100 µM throughout.
Take `CC(C)(C)C1=CC(=C2C=Cc3cc(O)ccc3O2)C=C(C(C)(C)C)C1=O`: the TGI was 3.55 µM in the experiment on BT-549 breast, 3.02 µM in the experiment with MCF7 breast and 2.99 µM in the experiment with NCI-H522 lung.
As to `O=C(Cn1c(C(=O)/C=C/c2ccc(Cl)cc2)nc2ccccc21)c1ccc(Cl)cc1`, the values for the TGI with BT-549 breast and in the experiment on MCF7 breast were 55.2 µM and 30.9 µM, respectively.
As to `Nc1ccc(Cn2ccc3c4c(N)nc(N)nc4ccc32)cc1`, the TGI in the experiment with BT-549 breast was 16.4 µM; in the experiment on DLD-1 colon, 17 µM; in the experiment with DMS 114 small cell lung, 1.94 µM; with DMS 273 small cell lung it was 11.9 µM; in the experiment on HOP-18 NSCLC it was 21.9 µM; in the experiment with KM20L2 colon, 10.8 µM. In addition, the TGI with LXFL 529 NSCLC turned out to be 15.7 µM; in the experiment with M19-MEL melanoma, 5.59 µM; in the experiment with MCF7 breast, 14.3 µM; with NCI-H522 lung, 3.72 µM; in the experiment with SNB-78 CNS, 32.5 µM; in the experiment on XF 498 CNS, 2.9 µM.
`CC1(C)N=C(c2ccccc2)SC12S[C@@H]1CCCC[C@H]1S2`: the TGI in the experiment with BT-549 breast, in the experiment on MCF7 breast and with NCI-H522 lung was > 100 µM each time.
Consider `N#C/C(=C\c1ccc([N+](=O)[O-])o1)c1n[nH]c(Cc2ccccc2)n1`, for which the TGI with BT-549 breast came to 8.46 µM; with MCF7 breast, 7.05 µM; with NCI-H522 lung, 1.57 µM.
